The subject of data set [1] is KCNQ channels. The data set is described as follows: Whole-cell voltage-clamp electrophysiological recording in CHO cells transfected with KCNQ channels. It is filed as cell-based. As to conditions: for I/I0: activation multiple, maximum induced current at −10 mV testing voltage after administration (10 μM) vs before, >1 activating, <1 inhibiting; for ΔV1/2: shift of V1/2 of current activation curve, negative sign = left-ward shift, CHO cells. The procedure: The formulation of culture fluid for Chinese hamster […] (CHO) (Culture Collection of Chinese Academy of Sciences): 50/50 DMEM/F-12 (Cellgro, Mamassas, Va.), 10% fetal bovine serum (FBS) (Gibco, Australia) and 2 mM […] (Invitrogen). […] Lipofectamine2000™ agent (Invitrogen) was used for Transfection according to the protocol thereof. […] After cotransfection with GFP (green fluorescent protein), transfected cells could be determined under a fluorescence microscopy.
Whole-cell voltage-clamp recording was performed by using Axopatch-200B amplifier (Molecular Devices, Sunnyvale, Calif.) at room temperature. Borosilicate glass capillary tubes (World Precision Instruments, Sarasota, Fla.) were drawn into electrodes. The electric resistance of the electrodes filled with an intracellular fluid is 3 to 5 MΩ. […] During the recording, an extracellular fluid was continuously perfused by using a BPS perfusion system (ALA Scientific Instruments, Westburg, N.Y.). The formulation of the extracellular fluid was as follows: 140 mM NaCl, 5 mM KCl, 2 mM CaCl2, 1.5 mM MgCl2, 10 mM HEPES and 10 mM glucose (the pH value of the extracellular fluid was adjusted to 7.4 with NaOH). […] Resistors were connected in series to compensate 60 to 80% of signal loss. At present, multivoltage scheme was generally adopted, wherein the clamp voltage was set at −100 mV. Current was induced in cells by a series of 2000 ms stimulating voltage (from −90 mV up to +50 mV, with interval of 10 mV).
In the following table, V1/2 is the voltage at which 50% of cells were activated, ΔV1/2 is amount of a left-ward shift of V1/2, negative sign (−) represents a left-ward shift of the current activation curve and positive sign (+) represents a right-ward shift of the curve. I/I0 is the activation multiple, wherein, I0 is the maximum induced current produced under stimulation of −10 mV testing voltage, I is the maximum induced current produced under stimulation of −10 mV testing voltage after administration (10 μM), I/I0>1 represents activating activity, and I/I0<1 represents inhibiting activity. N is the number of tested cells. NT represents non-tested.

Data set [2] in a line: Distribution of K20.2HCl and K21.2HCl in mice's plasma and brain tissue. It is filed as in vivo, KM mice. As to conditions: for Kp: brain, read-out: concentration of prototype drug in brain tissue relative to plasma. An excerpt: Two hours after administration, animal were fed uniformly. Specific arrangement was as following table.
Then the residual liquid was absorbed to dryness.

The subject of data set [3] is Convulsion Induced by Pentylenetetrazole (PTZ). Briefly: Convulsion induced by pentylenetetrazole (PTZ), compounds by gastric lavage, C57BL/6J mice. It is filed as in vivo. As to conditions: 30 mg/kg gastric lavage, PTZ-induced convulsion. Here is the method:
The compounds to be tested were administrated to animals by gastric lavage (30 mg/kg); one hour later, pentylenetetrazole was administrated by subcutaneous injection (PTZ 80 mg/kg); and response of animals were observed within a period of 60 min.

Data set [4] deals with Animal Models Induced by PTZ (Pentylenetetrazole). The data set is described as follows: PTZ test, compounds by intraperitoneal injection, KM mice. As to conditions: intraperitoneal injection, same dosage, PTZ and MES tests; formate dihydrochloride. It is filed as in vivo. The procedure:
Compounds to be tested were administrated by intraperitoneal injection (10 mg/kg, 5 mg/kg, 2.5 mg/kg, 0.1 ml/10 g).

The test system of data set [5] is Animal Models Induced by MES. The data set is described as follows: MES test, compounds orally administrated (gastric lavage), KM mice. It is filed as in vivo. As to conditions: gastric lavage; formate dihydrochloride. The procedure: One time of electrical stimulation was applied to animals through ear clip electrodes, and a convulsion characterized by a tonic hind limb extension was observed. One day before the test, animals were screened in the above procedure to record the values of MES.
1 hour later, MES was applied according to parameters set the last day, and response of animals were observed and recorded immediately.

Data set [6] deals with Animal Models Induced by PTZ. Briefly: PTZ test, compounds orally administrated (gastric lavage), KM mice. As to conditions: gastric lavage; formate dihydrochloride.
Experimental: Response of animals were observed immediately and recorded within a period of 1 h.
[7] abbreviates: K21.2HCl 5 mg/kg gastric lavage.

Where a name gives a salt, the structure may show the parent alone. Read-outs that look alike come from different tables or passages of the source.

Take `C=CCN(Cc1ccc(F)cc1)c1ccc2[nH]c(=O)[nH]c2c1` [Compound K34, 5-(N-parafluorobenzyl-N-allyl-imino)-benzimidazole-2-one]: in data set [1], the I/I0 is 1.44 ± 0.16.

For the compound `C=CCOC(=O)Nc1ccc(N(Cc2ccc(F)cc2)CC(C)C)cc1NC(=O)OCC=C` [Compound K27], the I/I0 in data set [1] worked out at 1.52 ± 0.17.

Consider `C#CCN(Cc1ccc(F)cc1)c1ccc(NC(=O)OC)c(F)c1` [Compound K15], for which, in data set [1], the I/I0 stood at 2.09 ± 0.31 and the ΔV1/2 is recorded as −22.0 ± 1.5 mV.

`C=CCN(Cc1ccc(F)cc1)c1ccc(NC(=O)OCC)c(N)c1` [Compound K20, ethyl 2-amino-4-(N-parafluorobenzyl-N-allyl-imino)-aniline formate]: in data set [1], the I/I0 came to 1.75 ± 0.12 and the ΔV1/2 is listed as −49.7 ± 3.4 mV. In addition, the Kp in data set [2] (male, KM, mouse, oral, 20 mg/kg gastric lavage) stood at 2.3.

Regarding `C#CCN(c1cccc(NC(=O)OC)c1)C(C)c1ccc(F)cc1` (centres unmarked) [Compound K16], in data set [1], the I/I0 worked out at 1.47 ± 0.10 and the ΔV1/2 is −20.6 ± 4.5 mV.

In turn, `C=C(C)CN(Cc1ccc(F)cc1)c1ccc(NC(=O)OC)c(NC(=O)OC)c1` [Compound K28] returned an I/I0 in data set [1] of 1.43 ± 0.05.

For the compound `C#CCN(Cc1ccc(F)cc1)c1ccc(NC(=O)OCc2ccccc2)cc1` [Compound K4], in data set [1], the I/I0 amounted to 2.09 ± 0.25 and the ΔV1/2 was −11.5 ± 2.0 mV.

With `C#CCN(Cc1ccc(F)cc1)c1ccc(NC(=O)OC)c(NC(=O)OC)c1` [Compound K22, methyl 2-(methoxycarbonyl-imino)-4-(N-parafluorobenzyl-N-propargyl-imino)-aniline formate], in data set [1], the I/I0 is listed as 2.10 ± 0.35 and the ΔV1/2 is given as −27.31 ± 3.9 mV.

For the compound `CCOC(=O)Nc1ccc(N(CCCC(C)=O)Cc2ccc(F)cc2)cc1NC(=O)OCC` [Compound K26], in data set [1], the I/I0 is recorded as 1.25 ± 0.07.

With `C#CCN(Cc1ccc(F)cc1)c1ccc(NC(=O)OCC)cc1` [Compound K8], in data set [1], the I/I0 was 1.99 ± 0.37 and the ΔV1/2 is −7.3 ± 2.5 mV.

As to `C#CCN(Cc1ccc(F)c(C(F)(F)F)c1)c1ccc(F)c(NC(=O)OC)c1` [Compound K11], in data set [1], the I/I0 was 2.24 ± 0.36 and the ΔV1/2 is −15.7 ± 1.0 mV. Besides, in data set [3], the “anti-convulsive effect (in words)” value is “comparable anti-convulsive effect”.

Turning to `C#CCN(Cc1ccc(F)c(C(F)(F)F)c1)c1ccccc1NC(=O)OC` [Compound K14], in data set [1], the I/I0 was 1.43 ± 0.04 and the ΔV1/2 was −14.7 ± 2.1 mV.

`C#CCN(Cc1ccc(F)cc1)c1ccc2[nH]c(=O)[nH]c2c1` [Compound K25, 5-(N-parafluorobenzyl-N-propargyl-imino)-benzimidazole-2-one]: in data set [1], the I/I0 is 1.8 ± 0.1 and the ΔV1/2 was −5.8 ± 1.7 mV.

For `CC(=O)Nc1ccc(NCc2ccc(F)cc2)cc1` [Compound K2], in data set [1], the I/I0 was 1.50 ± 0.08 and the ΔV1/2 is given as −3.0 ± 2.0 mV.

In the case of `C=C(/C=C/CO)CN(Cc1ccc(F)cc1)c1ccc(NC(=O)OCC)c(NC(=O)OCC)c1` [Compound K32, ethyl 2-(ethoxycarbonyl-imino)-4-[N-parafluorobenzyl-N-1-(6-hydroxyl-2-alkenyl-3-hexylene)-imino]-aniline formate], in data set [1], the I/I0 came out at 1.76 ± 0.09 and the ΔV1/2 is on record as −6.0 ± 1.5 mV.

In the case of `CCC#CCN(Cc1ccc(F)cc1)c1ccc(NC(=O)OCC)c(NC(=O)OCC)c1` [Compound K24], in data set [1], the I/I0 turned out to be 1.2 ± 0.1 and the ΔV1/2 is listed as −1.87 ± 2.5 mV.

Turning to `C=C(/C=C/CN)CN(Cc1ccc(F)cc1)c1ccc(NC(=O)OCC)c(NC(=O)OCC)c1` [Compound K39, ethyl 2-(ethoxycarbonyl-imino)-4-[N-parafluorobenzyl-N-1-(6-amino-2-alkenyl-3-hexylene)-imino]-aniline formate], the I/I0 in data set [1] is given as 1.03 ± 0.11.

Consider `C#CCN(Cc1ccc(F)cc1)c1ccc(F)c(NC(=O)OC)c1` [Compound K10, methyl 2-fluoro-5-(N-parafluorobenzyl-N-propargyl-imino)-aniline formate], for which, in data set [1], the I/I0 is recorded as 2.75 ± 0.31 and the ΔV1/2 is on record as −18.7 ± 2.6 mV.

Regarding `C#CCN(Cc1ccc(F)c(F)c1)c1ccc(NC(=O)OC)cc1` [Compound K19], in data set [1], the I/I0 was determined as 2.52 ± 0.23 and the ΔV1/2 is −14.9 ± 2.7 mV.

In data set [1], `CCOC(=O)Nc1ccc(N(CC2=CCCCC2)Cc2ccc(F)cc2)cc1NC(=O)OCC` [Compound K38] yielded an I/I0 of 0.16 ± 0.02.

For `C=CCN(Cc1ccc(F)cc1)c1ccc(NC(=O)OCC)cc1` [Compound K7], in data set [1], the I/I0 came to 1.35 ± 0.27 and the ΔV1/2 was −4.7 ± 2.0 mV.

Take `C#CCCOC(=O)Nc1ccc(N(CC#C)Cc2ccc(F)cc2)cc1N` [Compound K33]: the ΔV1/2 in data set [1] was −36.8 ± 3.3 mV.

Take `C#CCN(Cc1ccc(F)cc1)c1ccc(NC(=O)OCC)c(N)c1` [Compound K21.2HCl, ethyl 2-amino-4-(N-parafluorobenzyl-N-propargyl-imino)-aniline formate dihydrochloride]: the “anti-convulsive effect compared with retigabine (in words)” value in data set [4] is given as “superior anti-convulsive effect”. In data set [5], the “effect in MES test (in words)” value is given as “comparable effect”. For the same compound, in data set [2] (setting [7]), the “exposure amount of metabolite retigabine in brain tissue relative to prototype drug” value is 4.6% and the “exposure amount of metabolite retigabine in plasma relative to prototype drug” value was 5.4%. Moreover, the Kp in data set [2] (male, KM, mouse, oral, 5 mg/kg gastric lavage) amounted to 2.4. The Tmax in data set [2] (male, KM, mouse, plasma or brain tissue, oral, K21.2HCl 5 mg/kg gastric lavage, read-out: time to reach the maximum concentrations (Tmax) of prototype drug in plasma or brain tissue) was 15 min. Also, the “effect in PTZ test (in words)” value in data set [6] is recorded as “obviously inhibit the tonic seizures”.

In data set [1], `C=C(C)CN(Cc1ccc(F)cc1)c1ccc(NC(=O)OC(C)(C)C)c(NC(=O)OC(C)(C)C)c1` [Compound K29] yielded an I/I0 of 1.24 ± 0.10.

Take `CC#CCN(Cc1ccc(F)cc1)c1ccc(NC(=O)OCC)c(NC(=O)OCC)c1` [Compound K23]: in data set [1], the I/I0 came out at 1.44 ± 0.14 and the ΔV1/2 is given as −15.34 ± 3.8 mV.

For `C=C(C)CN(Cc1ccc(F)cc1)c1ccc(NC(=O)OC(C)C)c(NC(=O)OC(C)C)c1` [Compound K30], the I/I0 in data set [1] is given as 1.57 ± 0.25.

For `C#CCN(Cc1cccc(F)c1)c1ccc(NC(=O)OC)cc1` [Compound K12], in data set [1], the I/I0 was 2.33 ± 0.17 and the ΔV1/2 is −21.1 ± 1.9 mV.

With `COC(=O)Nc1ccc(N(CC=C(C)C)Cc2ccc(F)cc2)cc1NC(=O)OC` [Compound K31], the I/I0 in data set [1] was determined as 1.36 ± 0.13.

Take `C#CCN(Cc1ccccc1F)c1ccc(NC(=O)OC)cc1` [Compound K13]: in data set [1], the I/I0 is 2.31 ± 0.36 and the ΔV1/2 is recorded as −7.6 ± 1.9 mV.

Consider `CCCCCOC(=O)Nc1ccc(N(Cc2ccc(F)cc2)C(=O)OCCCCC)cc1` [Compound K6], for which, in data set [1], the I/I0 turned out to be 1.24 ± 0.02 and the ΔV1/2 is −1.6 ± 3.0 mV.

As to `C#CCN(Cc1ccc(F)cc1)c1ccc(NC(=O)OCC(C)C)cc1` [Compound K5], in data set [1], the I/I0 is recorded as 1.23 ± 0.08 and the ΔV1/2 is −14.3 ± 3.3 mV.

The values above are taken from patent publication US9353048B2, “Compound as KCNQ potassium channel agonist, preparation method therefor and use thereof” (SHANGHAI INSTITUTE OF MATERIA MEDICA, CHINESE ACADEMY OF …, priority 2011, dated 2016).
